Results taken from patent US20120195929A1, “COMPOUNDS THAT MODULATE AUTOIMMUNITY AND METHODS OF USING THE SAME” (priority 2009, published 2012).
Entries after “also recorded” stand apart in the source; their conditions may differ.

Tests used:
T cell hybridoma 8-1.1α1 = T cell hybridoma 8-1.1α1 response to B:9-23 peptide presented by I-A^g7; type: cell-based, mouse
Text: B:9-23 peptide and small molecule binding to panel a) T cell hybridoma 8-1.1α1, panel b) hybridoma BDC 12-4.1, and panel c) hybridoma BDC 12-4.4. […] Dotted line is at the stimulation index of the B:9-23 peptide. TT=tetanus toxin (negative control peptide).
TT=tetanus toxin (negative control peptide). B:19(A)=substitution of the native cysteine for alanine at position 19 in B:9-23. […] Results are given as a stimulation index (SI) from triplicate cultures+s.e.m. The data are representative of at least three independent experiments. […] The figure is representative of three independent experiments.
The top 40 scoring compounds (shown in Table 1) were screened for their ability to alter anti-B:9-23 T cell responses to three different T cell hybridomas, all with the dominant conserved Vα5D-4 TCR element but different CDR3α, Jα, and TCRβ chains. […] The same assays evaluating hybridoma response were performed using 40 random compounds from the NCI/DTP repository.

BDC 2.5 T cell hybridoma = BDC 2.5 T cell hybridoma response to chromogranin peptide mimotope presented by I-A^g7; type: cell-based, mouse; settings: chromogranin peptide mimotope presented by I-A^g7 (FIG. 2d)
I-A^g7 = test: Direct binding of biotinylated insulin B:9-23 peptide to purified I-A^g7; set-up: species or system mouse; settings: 500 nM; increasing biotinylated B:9-23; 2 h and 24 h
BDC 12-4.1 splenocytes = test: ELISPOT and supernatant cytokines, transgenic BDC 12-4.1 Rag−/− mouse splenocytes; type: cell-based
Procedure: Number of spots for each well is shown in the upper left hand corner.
The in vitro response of a monoclonal T cell population targeted to the B:9-23 peptide (rather than hybridomas) was evaluated by enzyme-linked immunospot (ELISPOT). […] Stimulation without the addition of B:9-23 peptide was unexpected and could be due to in vivo insulin peptide-MHC complexes present in the spleen. As shown in panel d of FIG. 3, both IL-10 (FIG. 3c) and IFN-γ (FIG. 3d) were quantified in the supernatant of stimulated splenocytes.

Balb/c splenocytes = test: IL-10 ELISPOT, Balb/c splenocytes (I-A^d); type: cell-based, Balb/c mice
Text: (§1) Balb/c mice have I-A^d as their class II antigen presenting molecule. I-A^d is structurally similar to I-A^g7 of the NOD, with both strains having identical I-A alpha chains (17 amino acid differences in the I-A beta chains). C57BL/6 mice have I-A^b as their class II antigen presenting molecule. Both strains lack the basic pocket 9 in the peptide binding groove.

C57BL/6 splenocytes = test: IL-10 ELISPOT, C57BL/6 splenocytes (I-A^b); type: cell-based, C57BL/6 mice; settings: C57BL/6, I-A^b
Text: as §1

[1] = test system: I-A^g7 congenic splenocytes; test: IL-10 ELISPOT, splenocytes from C57BL/6 mice congenic for I-A^g7; type: cell-based; settings: C57BL/6 congenic for I-A^g7
Text: as §1

NOD mice splenocytes = test: Ex vivo ELISPOT of splenocytes from NOD mice treated in vivo; settings: 80 mg/kg/day intraperitoneal for 5 days, 10 week old female NOD mice; vs PBS
NOD mice = test: Diabetes prevention study in NOD mice; settings: 80 mg/kg/day i.p. 5 days per week from 4 to 21 weeks of age; p<0.001 vs PBS controls
NOD splenocytes = test: IL-10 ELISPOT, in vitro culture of NOD splenocytes; settings: stimulated with glyphosine and B:9-23 peptide

O=C(O)CN(CP(=O)(O)O)CP(=O)(O)O [Glyphosine, N,N-bis(phosphonomethyl)glycine]
TCR stimulation with other modified B:9-23 insulin peptides (T cell hybridoma 8-1.1α1; FIG. 2c): enhanced TCR stimulation | EC50 (T cell hybridoma 8-1.1α1; Mus musculus, T-cell, with B:9-23 peptide (FIG. 2b), read-out: EC50 concentration, enhancement of TCR stimulation): 70.6 nM | maximal stimulatory effect, fold greater than peptide alone (T cell hybridoma 8-1.1α1; at 500 nM): approximately 2.5 fold | concentration of maximal stimulatory effect (T cell hybridoma 8-1.1α1; with B:9-23 peptide): 500 nM | lowest concentration at which an effect was seen (T cell hybridoma 8-1.1α1; with B:9-23 peptide (FIG. 2b)): 10 nM | TCR stimulation, dependence on peptide (T cell hybridoma 8-1.1α1; with vs without B:9-23 peptide (FIG. 2b)): modulated TCR stimulation only when peptide is present | peptide stimulation of BDC 2.5 hybridoma (BDC 2.5 T cell hybridoma): did not enhance peptide stimulation | B:9-23 peptide binding to empty I-A^g7 (I-A^g7): directly enhance B:9-23 peptide binding | IFN-γ positive cells (ELISPOT) (BDC 12-4.1 splenocytes; in vitro, 500 nM): much smaller increase in IFN-γ positive cells | IL-10 positive cells (ELISPOT) (BDC 12-4.1 splenocytes; in vitro, 500 nM, with and without B:9-23 peptide): dramatically enhances IL-10 positive cells | IFN-γ levels in supernatant (BDC 12-4.1 splenocytes; with B:9-23 peptide, compared to peptide alone): not increased; also recorded: decreases IFN-γ levels | IL-10 ELISPOT response to compound plus B:9-23 peptide (Balb/c splenocytes): failed to respond | IL-10 ELISPOT response to compound plus B:9-23 peptide (C57BL/6 splenocytes): failed to respond | IL-10 ELISPOT response to compound plus B:9-23 peptide [1]: responded | ex vivo IFN-γ ELISPOT (NOD mice splenocytes): no change in IFN-γ | ex vivo IL-10 ELISPOT (NOD mice splenocytes): upregulation of IL-10 | development of diabetes (NOD mice): Prevention of diabetes occurred as long as therapy was administered | IL-10 producing cells (ELISPOT) (NOD splenocytes): three- to four-fold increase
